Reference: US6136813A, “Pharmaceutical treatment” (Beecham plc, priority 1989, dated 2000)
Read-outs that look alike come from different tables or passages of the source.

Assay: Blood levels of penciclovir in Pekin ducks after oral dosing with penciclovir or famciclovir
Format: in vivo
Conditions: duck; for AUC at 6 h: 0-6 hr; for concentration at 0.25 h: 15 min; for concentration at 0.5 h / concentration at 32 min: 30 min; for concentration at 65 min / concentration at 1 h: 60 min; for concentration at 65 min: sample collected at 65 min; for concentration at 2 h: 120 min; for concentration at 4 h: 240 min; for concentration at 6 h: 360 min; for concentration at 32 min: sample collected at 32 min
[1] = 20 mg/kg, oral penciclovir 20 mg/kg, Duck No. 139
[2] = 20 mg/kg, oral penciclovir 20 mg/kg, Duck No. 169
[3] = 100 mg/kg, oral penciclovir 100 mg/kg, Duck No. 142
[4] = 100 mg/kg, oral penciclovir 100 mg/kg, Duck No. 163
[5] = 5 mg/kg, oral famciclovir 5 mg/kg, Duck No. 117
[6] = 5 mg/kg, oral famciclovir 5 mg/kg, Duck No. 154
[7] = 25 mg/kg, oral famciclovir 25 mg/kg, Duck No. 111
[8] = 25 mg/kg, oral famciclovir 25 mg/kg, Duck No. 153

Nc1nc2c(ncn2CCC(CO)CO)c(=O)[nH]1 [penciclovir]
AUC at 6 h (20 mg/kg, oral penciclovir 20 mg/kg, Duck No. 139, read-out: AUC (area under the 0-6 hr. concentration/time curve) of penciclovir in blood): 55 µM·h | AUC at 6 h (20 mg/kg, oral penciclovir 20 mg/kg, Duck No. 169, read-out: AUC (area under the 0-6 hr. concentration/time curve) of penciclovir in blood): 57 µM·h | concentration at 0.25 h [1]: 24 µM | concentration at 0.25 h [2]: 41 µM | concentration at 0.5 h [1]: 28 µM | concentration at 0.5 h [2]: 30 µM | concentration at 65 min [1]: 18 µM | concentration at 65 min [2]: 19 µM | concentration at 2 h [1]: 12 µM | concentration at 2 h [2]: 10 µM | concentration at 4 h [1]: 2.8 µM | concentration at 4 h [2]: 2.6 µM | concentration at 6 h [1]: ~0.5 µM | AUC at 6 h (100 mg/kg, oral penciclovir 100 mg/kg, Duck No. 142, read-out: AUC (area under the 0-6 hr. concentration/time curve) of penciclovir in blood): 92 µM·h | AUC at 6 h (100 mg/kg, oral penciclovir 100 mg/kg, Duck No. 163, read-out: AUC (area under the 0-6 hr. concentration/time curve) of penciclovir in blood): 95 µM·h | concentration at 0.25 h [3]: 43 µM | concentration at 0.25 h [4]: 42 µM | concentration at 0.5 h [3]: 44 µM | concentration at 0.5 h [4]: 38 µM | concentration at 1 h [3]: 40 µM | concentration at 65 min [4]: 44 µM | concentration at 2 h [3]: 18 µM | concentration at 2 h [4]: 21 µM | concentration at 4 h [3]: 3.6 µM | concentration at 4 h [4]: 2.7 µM | concentration at 6 h [3]: 1.1 µM | concentration at 6 h [4]: ~0.5 µM

CC(=O)OCC(CCn1cnc2cnc(N)nc21)COC(C)=O [famciclovir, 9-(4-acetoxy-3-acetoxymethylbut-1-yl)-2-aminopurine]
AUC at 6 h (5 mg/kg, oral famciclovir 5 mg/kg, Duck No. 117, read-out: AUC (area under the 0-6 hr. concentration/time curve) of penciclovir in blood): 15 µM·h | AUC at 6 h (5 mg/kg, oral famciclovir 5 mg/kg, Duck No. 154, read-out: AUC (area under the 0-6 hr. concentration/time curve) of penciclovir in blood): 12 µM·h | concentration at 0.25 h [5]: 8.7 µM | concentration at 0.25 h [6]: 5.1 µM | concentration at 32 min [5]: 8.4 µM | concentration at 32 min [6]: 3.9 µM | concentration at 1 h [5]: 7.5 µM | concentration at 1 h [6]: 3.5 µM | concentration at 2 h [5]: 2 µM | concentration at 2 h [6]: 2 µM | concentration at 4 h [5]: ~0.5 µM | concentration at 4 h [6]: 1.4 µM | concentration at 6 h [6]: 1 µM | AUC at 6 h (25 mg/kg, oral famciclovir 25 mg/kg, Duck No. 111, read-out: AUC (area under the 0-6 hr. concentration/time curve) of penciclovir in blood): 126 µM·h | AUC at 6 h (25 mg/kg, oral famciclovir 25 mg/kg, Duck No. 153, read-out: AUC (area under the 0-6 hr. concentration/time curve) of penciclovir in blood): 90 µM·h | concentration at 0.25 h [7]: 22 µM | concentration at 0.25 h [8]: 18 µM | concentration at 0.5 h [7]: 31 µM | concentration at 32 min [8]: 20 µM | concentration at 1 h [7]: 34 µM | concentration at 1 h [8]: 25 µM | concentration at 2 h [7]: 33 µM | concentration at 2 h [8]: 20 µM | concentration at 4 h [7]: 14 µM | concentration at 4 h [8]: 4.4 µM | concentration at 6 h [7]: 6.1 µM | concentration at 6 h [8]: ~0.5 µM
